Assay results taken from patent US9649512B2, “One or more of Vigna marina, Cocos nucifera L. or Terminalia catappa L. extracts for treating wounds, skin disorders and hair loss” (CIMTECH PTY LIMITED, priority 2009, dated 2017).

Tested on: epithelial surface of the backs of 18 month old ovarectomized and sham ovarectomized rats
Assay: Parallel study of moisturiser and antibiotic on epithelial thickness
Type: in vivo, rat
From the text: In a parallel study a moisturiser (hydroderm), the topical antibiotic Chloromycetin (chloramphenicol), coconut oil, or coconut oil extracted into ethanol were applied to the epithelial surface of the backs of 18 month old ovarectomized and sham ovarectomized rats and compared to the epithelial surface of an adjacent untreated site. […] The results also indicate that the changes noted in the epithelium are not related to any antimicrobial capacity of the extracts as the changes are not able to be replicated by chloramphenicol.

O=C(N[C@H](CO)[C@H](O)c1ccc([N+](=O)[O-])cc1)C(Cl)Cl [Chloromycetin (chloramphenicol), chloramphenicol]
thickness of the treated skin compared to the untreated adjacent skin: No significant difference
